Legend:
[1] = biological target: Serine/threonine-protein kinase B-raf (Homo sapiens, UniProt P15056)
Description: Inhibition of human recombinant full-length GST-tagged B-Raf by radiometric kinase assay

[2] = biological target: Tyrosine-protein kinase ABL1 (Mus musculus, UniProt P00520)
Description: Inhibition of mouse recombinant N-terminal His6-tagged Abl by radiometric kinase assay

[3] = biological target: Mitogen-activated protein kinase 14 (Homo sapiens, UniProt Q16539); experiment: Inhibition of human recombinant full-length N-terminal GST-tagged p38alpha expressed in Escherichia coli by radiometric kinase assay
Mitogen-activated protein kinase 14, sequence (Q16539 whole entry): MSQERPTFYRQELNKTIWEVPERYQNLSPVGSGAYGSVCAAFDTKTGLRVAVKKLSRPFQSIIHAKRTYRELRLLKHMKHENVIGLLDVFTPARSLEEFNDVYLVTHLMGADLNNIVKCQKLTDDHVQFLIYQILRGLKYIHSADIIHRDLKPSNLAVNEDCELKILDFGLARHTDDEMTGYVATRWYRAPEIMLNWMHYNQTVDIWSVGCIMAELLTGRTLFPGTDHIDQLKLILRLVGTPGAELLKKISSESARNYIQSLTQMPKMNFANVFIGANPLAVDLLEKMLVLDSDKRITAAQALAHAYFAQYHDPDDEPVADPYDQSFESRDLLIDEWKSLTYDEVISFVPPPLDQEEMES

Serine/threonine-protein kinase B-raf, sequence (P15056 whole entry): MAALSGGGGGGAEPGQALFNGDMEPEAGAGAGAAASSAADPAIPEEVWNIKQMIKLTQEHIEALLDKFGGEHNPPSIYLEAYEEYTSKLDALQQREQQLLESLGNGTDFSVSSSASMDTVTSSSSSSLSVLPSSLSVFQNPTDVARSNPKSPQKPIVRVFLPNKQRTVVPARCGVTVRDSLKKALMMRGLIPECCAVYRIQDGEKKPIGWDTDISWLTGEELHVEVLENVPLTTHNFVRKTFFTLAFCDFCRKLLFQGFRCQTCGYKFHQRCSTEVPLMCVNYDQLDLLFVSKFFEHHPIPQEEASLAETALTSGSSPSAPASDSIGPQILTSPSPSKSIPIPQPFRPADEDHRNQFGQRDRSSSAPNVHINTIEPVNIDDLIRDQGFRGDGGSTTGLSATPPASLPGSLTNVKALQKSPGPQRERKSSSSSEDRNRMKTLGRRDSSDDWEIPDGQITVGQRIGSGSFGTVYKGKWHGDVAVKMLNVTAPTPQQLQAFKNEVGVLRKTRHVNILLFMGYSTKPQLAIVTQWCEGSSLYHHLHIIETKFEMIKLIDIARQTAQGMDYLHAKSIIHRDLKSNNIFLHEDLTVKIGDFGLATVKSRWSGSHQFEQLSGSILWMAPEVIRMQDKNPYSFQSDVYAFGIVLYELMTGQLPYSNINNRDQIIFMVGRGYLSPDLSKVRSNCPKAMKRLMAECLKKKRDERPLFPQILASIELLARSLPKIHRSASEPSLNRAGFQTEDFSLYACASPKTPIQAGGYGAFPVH
Tyrosine-protein kinase ABL1, sequence (P00520 whole entry): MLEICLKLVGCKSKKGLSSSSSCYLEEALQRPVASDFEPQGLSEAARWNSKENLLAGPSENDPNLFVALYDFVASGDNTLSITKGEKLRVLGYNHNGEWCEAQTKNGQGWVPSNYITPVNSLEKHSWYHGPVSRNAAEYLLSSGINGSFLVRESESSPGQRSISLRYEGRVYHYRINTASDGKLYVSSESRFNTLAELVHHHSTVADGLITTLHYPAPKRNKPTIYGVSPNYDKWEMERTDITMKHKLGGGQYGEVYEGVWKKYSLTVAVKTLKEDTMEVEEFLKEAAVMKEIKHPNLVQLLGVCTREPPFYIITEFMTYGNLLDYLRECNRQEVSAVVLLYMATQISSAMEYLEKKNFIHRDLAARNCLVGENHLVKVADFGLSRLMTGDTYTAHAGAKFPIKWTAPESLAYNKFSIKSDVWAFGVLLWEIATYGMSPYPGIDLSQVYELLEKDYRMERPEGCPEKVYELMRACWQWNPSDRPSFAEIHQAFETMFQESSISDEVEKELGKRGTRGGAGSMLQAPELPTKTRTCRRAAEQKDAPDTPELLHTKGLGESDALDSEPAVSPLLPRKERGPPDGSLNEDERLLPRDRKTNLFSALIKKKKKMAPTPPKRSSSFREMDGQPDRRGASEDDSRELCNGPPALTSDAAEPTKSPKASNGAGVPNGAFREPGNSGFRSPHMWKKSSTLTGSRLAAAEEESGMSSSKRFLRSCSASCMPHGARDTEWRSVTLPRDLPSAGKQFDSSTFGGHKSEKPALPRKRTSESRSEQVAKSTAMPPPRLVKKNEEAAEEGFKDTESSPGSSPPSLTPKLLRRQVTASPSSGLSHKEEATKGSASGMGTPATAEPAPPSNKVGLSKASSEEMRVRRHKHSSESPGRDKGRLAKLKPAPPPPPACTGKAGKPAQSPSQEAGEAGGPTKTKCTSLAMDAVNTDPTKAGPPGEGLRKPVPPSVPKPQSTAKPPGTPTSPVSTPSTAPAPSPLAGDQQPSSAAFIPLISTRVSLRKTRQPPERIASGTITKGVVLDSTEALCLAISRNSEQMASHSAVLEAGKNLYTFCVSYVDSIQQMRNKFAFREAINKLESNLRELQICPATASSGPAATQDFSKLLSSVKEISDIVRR

Compound CNC(=O)c1cc(Oc2ccc(NC(=O)Nc3ccc(CN4CCN(C)CC4)cc3)cc2)ccn1 has an IC50 [1] greater than 100000 nM, an IC50 [2] of 572 nM and an IC50 [3] greater than 100000 nM.

Work on Cc1ccc(NC(=O)Nc2ccc(Cl)c(C(F)(F)F)c2)cc1Nc1nccc(-c2cccnc2)n1 yielded an IC50 [1] of 180 nM, an IC50 [2] of less than 1 nM and an IC50 [3] of 18.4 nM.

For Cc1ccc(-n2nc(C(C)(C)C)cc2NC(=O)Nc2ccc(C)c(Nc3nccc(-c4cccnc4)n3)c2)cc1, the IC50 [1] was 414 nM, the IC50 [2] was 8.6 nM and the IC50 [3] was 189 nM.

O=C(Nc1ccc(Cl)c(C(F)(F)F)c1)Nc1ccc(OCCN2CCOCC2)c2ccccc12 gave an IC50 [1] of less than 1 nM and an IC50 [2] of 12900 nM.

CNC(=O)c1cc(Oc2ccc(NC(=O)c3ccc(CN4CCN(C)CC4)cc3)cc2)ccn1 was tested, and the IC50 [1] was greater than 100000 nM, the IC50 [2] was greater than 30000 nM and the IC50 [3] was greater than 100000 nM.

In the case of CNC(=O)c1cc(Oc2ccc(NC(=O)Nc3cc(C(C)(C)C)nn3-c3ccc(C)cc3)cc2)ccn1, the IC50 [1] is reported as 237 nM and the IC50 [2] is reported as 62.6 nM.

For O=C(Nc1ccc(OCCN2CCOCC2)cc1)Nc1ccc(Cl)c(C(F)(F)F)c1, the IC50 [1] was 92.3 nM, the IC50 [2] was 244 nM and the IC50 [3] was 105 nM.

Work on CN1CCN(Cc2ccc(C(=O)Nc3ccc(OCCN4CCOCC4)c4ccccc34)cc2)CC1 yielded an IC50 [1] greater than 100000 nM, an IC50 [2] greater than 30000 nM and an IC50 [3] greater than 100000 nM.

Source: ChEMBL document CHEMBL1212849, “The design, synthesis, and evaluation of 8 hybrid DFG-out allosteric kinase inhibitors: a structural analysis of the binding interactions of Gleevec, Nexavar, and BIRB-796” (Bioorg Med Chem, 2010)
